{
  "source": "patent US20250302788A1",
  "about": "“COMPOSITION COMPRISING CREATINE FOR USE IN THE TREATMENT OF POST VIRAL FATIGUE SYNDROME” (Alzchem Trostberg GmbH, priority 2022, published 2025)",
  "key": {"Post-COVID patients": {"system": "Post-COVID patients", "assay": "MFI-20 fatigue test, Example 2", "assay_type": "in vivo, human", "details": "plus breathing exercise", "description": "The patient-reported outcomes for COVID-19-related signs and symptoms (e.g. headache, concentrating difficulties, anosmia, ageusia) were evaluated with VAS scale. Fatigue, comprising the conditions of the group general fatigue, physical fatigue, metal fatigue, reduced activity, and reduced motivation, was evaluated with a multidimensional fatigue inventory test (MFI-20 test, Smets E. M. et al., J. Psychosom. Res. 1995, 39 (3), 315)."}, "[1]": {"details": "both, human, in vivo, 3 months"}, "[2]": {"details": "both, human, in vivo"}, "PCFS patients [3]": {"system": "PCFS patients", "assay": "MFI-20 fatigue test, Example 3", "assay_type": "in vivo, human"}, "PCFS patients [4]": {"system": "PCFS patients", "assay_type": "in vivo, human"}, "PCFS patients [5]": {"system": "PCFS patients", "assay": "Incremental treadmill test until exhaustion, Example 3", "assay_type": "in vivo, human", "description": "In addition the time to exhaustion of the patients was evaluated by an incremental test until exhaustion on a motorized treadmill."}},
  "note": "Read-outs that look alike come from different tables or passages of the source.",
  "data": [
    {"smiles": "CN(CC(=O)O)C(=N)N.O", "note": "[Creatine + Breathing Exercise, creatine monohydrate]", "values": [
      {"measurement": "General fatigue (MFI-20 score)", "setting": "Post-COVID patients; 3 months", "result": 12.3},
      {"measurement": "Mental fatigue (MFI-20 score)", "setting": "Post-COVID patients; 3 months", "result": 11.5},
      {"measurement": "Physical fatigue (MFI-20 score)", "setting": "Post-COVID patients; 3 months", "result": 12.2},
      {"measurement": "Reduced activity (MFI-20 score)", "setting": "Post-COVID patients; 3 months", "result": 12.8},
      {"measurement": "Reduced motivation (MFI-20 score)", "setting": "Post-COVID patients; 3 months", "result": 12.8},
      {"measurement": "General fatigue (MFI-20 score)", "setting": "Post-COVID patients; Baseline", "result": 11.5},
      {"measurement": "Mental fatigue (MFI-20 score)", "setting": "Post-COVID patients; Baseline", "result": 11.8},
      {"measurement": "Physical fatigue (MFI-20 score)", "setting": "Post-COVID patients; Baseline", "result": 12.3},
      {"measurement": "Reduced activity (MFI-20 score)", "setting": "Post-COVID patients; Baseline", "result": 12.5},
      {"measurement": "Reduced motivation (MFI-20 score)", "setting": "Post-COVID patients; Baseline", "result": 13.5},
      {"measurement": "Cohen's effect size (d) for creatine increment, right frontal grey matter", "setting": "[1]", "result": 1.76},
      {"measurement": "Cohen's effect size (d) for creatine increment, vastus medialis muscle", "setting": "[1]", "result": 0.77}
    ]},
    {"smiles": "O=C[C@H](O)[C@@H](O)[C@H](O)[C@H](O)CO", "note": "[Glucose, glucose, reference compound]", "values": [
      {"measurement": "Total creatine, Left frontal grey matter", "setting": "[2]", "result": "6.8 ± 0.4", "unit": "mM"},
      {"measurement": "Total creatine, Left frontal white matter", "setting": "[2]", "result": "5.8 ± 0.4", "unit": "mM"},
      {"measurement": "Total creatine, Left mesial grey matter", "setting": "[2]", "result": "7.6 ± 0.7", "unit": "mM"},
      {"measurement": "Total creatine, Left paracentral grey matter", "setting": "[2]", "result": "7.0 ± 0.9", "unit": "mM"},
      {"measurement": "Total creatine, Left parietal white matter", "setting": "[2]", "result": "5.4 ± 0.6", "unit": "mM"},
      {"measurement": "Total creatine, Left precentral white matter", "setting": "[2]", "result": "5.6 ± 0.6", "unit": "mM"},
      {"measurement": "Total creatine, Right frontal grey matter", "setting": "[2]", "result": "7.0 ± 0.9", "unit": "mM"},
      {"measurement": "Total creatine, Right frontal white matter", "setting": "[2]", "result": "5.6 ± 0.8", "unit": "mM"},
      {"measurement": "Total creatine, Right mesial grey matter", "setting": "[2]", "result": "7.3 ± 0.6", "unit": "mM"},
      {"measurement": "Total creatine, Right paracentral grey matter", "setting": "[2]", "result": "6.4 ± 0.7", "unit": "mM"},
      {"measurement": "Total creatine, Right parietal white matter", "setting": "[2]", "result": "5.2 ± 0.7", "unit": "mM"},
      {"measurement": "Total creatine, Right precentral white matter", "setting": "[2]", "result": "5.4 ± 0.6", "unit": "mM"},
      {"measurement": "Total creatine, Thalamus", "setting": "[2]", "result": "5.5 ± 0.5", "unit": "mM"},
      {"measurement": "Total creatine, Vastus medialis muscle", "setting": "[2]", "result": "30.1 ± 12.7", "unit": "mM"},
      {"measurement": "Total creatine, Left frontal grey matter", "setting": "[2]; 8 weeks", "result": "6.3 ± 0.9", "unit": "mM"},
      {"measurement": "Total creatine, Left frontal white matter", "setting": "[2]; 8 weeks", "result": "5.6 ± 1.0", "unit": "mM"},
      {"measurement": "Total creatine, Left mesial grey matter", "setting": "[2]; 8 weeks", "result": "7.4 ± 0.6", "unit": "mM"},
      {"measurement": "Total creatine, Left paracentral grey matter", "setting": "[2]; 8 weeks", "result": "6.9 ± 0.7", "unit": "mM"},
      {"measurement": "Total creatine, Left parietal white matter", "setting": "[2]; 8 weeks", "result": "5.3 ± 0.5", "unit": "mM"},
      {"measurement": "Total creatine, Left precentral white matter", "setting": "[2]; 8 weeks", "result": "5.6 ± 0.5", "unit": "mM"},
      {"measurement": "Total creatine, Right frontal grey matter", "setting": "[2]; 8 weeks", "result": "7.0 ± 0.7", "unit": "mM"},
      {"measurement": "Total creatine, Right frontal white matter", "setting": "[2]; 8 weeks", "result": "5.6 ± 0.8", "unit": "mM"},
      {"measurement": "Total creatine, Right mesial grey matter", "setting": "[2]; 8 weeks", "result": "7.0 ± 1.0", "unit": "mM"},
      {"measurement": "Total creatine, Right paracentral grey matter", "setting": "[2]; 8 weeks", "result": "6.2 ± 1.1", "unit": "mM"},
      {"measurement": "Total creatine, Right parietal white matter", "setting": "[2]; 8 weeks", "result": "5.2 ± 0.7", "unit": "mM"},
      {"measurement": "Total creatine, Right precentral white matter", "setting": "[2]; 8 weeks", "result": "5.3 ± 0.7", "unit": "mM"},
      {"measurement": "Total creatine, Thalamus", "setting": "[2]; 8 weeks", "result": "5.5 ± 0.7", "unit": "mM"},
      {"measurement": "Total creatine, Vastus medialis muscle", "setting": "[2]; 8 weeks", "result": "28.5 ± 9.2", "unit": "mM"},
      {"measurement": "General fatigue (MFI-20 score)", "setting": "PCFS patients [3]; 8 weeks", "result": 11.6},
      {"measurement": "Mental fatigue (MFI-20 score)", "setting": "PCFS patients [3]; 8 weeks", "result": 11.0},
      {"measurement": "Physical fatigue (MFI-20 score)", "setting": "PCFS patients [3]; 8 weeks", "result": 12.6},
      {"measurement": "Reduced activity (MFI-20 score)", "setting": "PCFS patients [3]; 8 weeks", "result": 12.6},
      {"measurement": "Reduced motivation (MFI-20 score)", "setting": "PCFS patients [3]; 8 weeks", "result": 10.8},
      {"measurement": "General fatigue (MFI-20 score)", "setting": "PCFS patients [3]; Baseline", "result": 12.0},
      {"measurement": "Mental fatigue (MFI-20 score)", "setting": "PCFS patients [3]; Baseline", "result": 11.4},
      {"measurement": "Physical fatigue (MFI-20 score)", "setting": "PCFS patients [3]; Baseline", "result": 12.8},
      {"measurement": "Reduced activity (MFI-20 score)", "setting": "PCFS patients [3]; Baseline", "result": 12.6},
      {"measurement": "Reduced motivation (MFI-20 score)", "setting": "PCFS patients [3]; Baseline", "result": 10.0},
      {"measurement": "Ageusia (VAS scale)", "setting": "PCFS patients [4]; 8 weeks", "result": 0.6},
      {"measurement": "Anosmia (VAS scale)", "setting": "PCFS patients [4]; 8 weeks", "result": 1.0},
      {"measurement": "Concentrating difficulties (VAS scale)", "setting": "PCFS patients [4]; 8 weeks", "result": 3.0},
      {"measurement": "Headache (VAS scale)", "setting": "PCFS patients [4]; 8 weeks", "result": 2.8},
      {"measurement": "Malaise (VAS scale)", "setting": "PCFS patients [4]; 8 weeks", "result": 3.0},
      {"measurement": "Ageusia (VAS scale)", "setting": "PCFS patients [4]; Baseline", "result": 2.2},
      {"measurement": "Anosmia (VAS scale)", "setting": "PCFS patients [4]; Baseline", "result": 2.6},
      {"measurement": "Concentrating difficulties (VAS scale)", "setting": "PCFS patients [4]; Baseline", "result": 4.4},
      {"measurement": "Headache (VAS scale)", "setting": "PCFS patients [4]; Baseline", "result": 3.8},
      {"measurement": "Malaise (VAS scale)", "setting": "PCFS patients [4]; Baseline", "result": 4.6},
      {"measurement": "Time to exhaustion", "setting": "PCFS patients [5]; 8 weeks", "result": 908, "unit": "s"},
      {"measurement": "Time to exhaustion", "setting": "PCFS patients [5]; Baseline", "result": 915, "unit": "s"},
      {"measurement": "Change of time to exhaustion", "setting": "PCFS patients [5]; post-administration (8 weeks) vs baseline", "result": -7, "unit": "s"}
    ]}
  ]
}
